From patent US5302602A, “Tricyclic thromboxane A2 antagonists” (Kyowa Hakko Kogyo Co., Ltd., priority 1987, dated 1994)
Like-named read-outs stand apart in the source and are kept apart here.

How the values were obtained:
[1] = test system: guinea pig platelets (TXA2/prostaglandin H2 receptor); assay: Test on anti-platelet activity (TXA2 antagonizing test): inhibition of U-46619-induced platelet aggregation; assay type: cell-based; details: Cavia porcellus, 0.05 h; minimum concentration inhibiting U-46619 (0.5-1 μM)-induced platelet aggregation by 30% or more; guinea pig PRP; read-out: TXA2 Antagonizing Activity (MEC), minimum effective concentration
Method: Using guinea pig platelets influence of the compounds in accordance with the present invention on platelet aggregation induced by U-46619 (9,11-dideoxy-9α,11a-methanoepoxyprostaglandin F2 α; manufactured by Cayman Chemica Co., Ltd.) which is a TXA2 /prostaglandin H2 receptor stimulant was examined.
Male guinea pig (Hartley strain; body weight, 300 to 600 g) was anesthesized by intraperitoneal administration of sodium pentobarbital (30 mg/kg) and blood was collected from the descending aorta of the abdomen with a 1/10 volume of sodium citrate. By centrifugation (KC-70: manufactured by Kubota Co., Ltd.) at 800 rpm for 10 minutes, platelet rich plasma (PRP) was collected. Platelet aggregation induced by U-46619 (0.5-1 μM) was determined by photometry [Born, G.V.R. et al., Nature (London), 194, 927-929 (1962)]. A test compound was pretreated 3 minutes prior to aggregation induction and ability of inhibiting aggregation was measured. The minimum concentration for inhibiting platelet aggregation by 30% or more was defined as the minimum effective concentration (MEC) of the test compound.

[2] = test system: homologous passive cutaneous anaphylaxis (PCA); assay: Antiallergic activity test: homologous passive cutaneous anaphylaxis (PCA) test for 48 hours using rats; assay type: in vivo, rat (Wistar strain, male); details: Rattus norvegicus, po, minimum dose with at least one of 3 rats showing PCA inhibition rate 50% or more, read-out: Antiallergic Activity (MED), minimum effective dose
Method: Antiallergic activity was examined in accordance with the passive cutaneous anaphylaxis (PCA) test using rats. As test animals, Wistar strain male rats weighing 180 to 220 g were used to collect antiserum and for the PCA test, Wistar strain male rats weighing 120 to 140 g were used.
Anti-EWA rat serum was prepared according to the method of Stotland and Share [Can. J. Physiol. Pharmacol., 52, 1114 (1974)]. That is, 1 mg of EWA was mixed with 20 mg of aluminum hydroxide gel and 0.5 ml of pertussis-diphtberia-tetanus mixed vaccine. The mixture was subcutaneously administered to the rat paw in 4 portions. Fourteen days after, blood was collected from the carotid artery and the serum was isolated and stored in a state frozen at -80° C. Titer of this antiserum to homologous PCA for 48 hours was 1:32.
Three rats were used per group. After the hair at the back was cut, 0.05 ml each of anti-EWA rat serum diluted to 8-fold with physiological saline was intracutaneously injected to each rat at the back in 2 places to passively sensitize the rat. A test compound or its solution (physiological saline solution or CMC solution) was orally administered 47 hours after and 0.5 ml/100 g of 1% Evans Blue physiological saline containing 2 mg of antigen EWA was then intravenously administered to the tail vein an hour after the administration. Thirty minutes later, the animal was bled to death. The skin was peeled off and a leaked dye amount at the blue dyed portion was measured according to the method of Katayama et al. [Microbiol. Immunol., 22, 89 (1978)]. That is, the blue dyed portion was cut off with scissors, put into a test tube charged with 1 ml of 1 N potassium hydroxide and incubated at 37° C. for 24 hours. After 9 ml of a mixture of 0.6 N phosphate:acetone (5:13) was added to the system, the mixture was shaken followed by centrifugation at 2500 rpm for 10 minutes. The absorbancy of the supernatant at 620 nm was measured and the leaked dye amount was quantitatively determined by comparison with a calibration curve previously prepared. A value of one rat was obtained from a mean value of the two portions and an inhibition rate-of each rat was calculated according to the following equation. [formula]
The case showing that the inhibition rate is 50% or more is judged to be positive in the PCA inhibition activity and the minimum dose in which at least one out of 3 rats was recognized to be positive was defined as the minimum effective dose (MED) of the test compound.

mice = assay: Acute toxicity test; assay type: in vivo; details: mortality observed for seven days
Method: Using three dd strain male mice weighing 20±1 g, a test compound was orally (po; 300 mg/kg) or intraperitoneally (ip; 100 mg/kg) administered. MLD (the minimum lethal dose) was determined by observing the mortality for seven days after administration.

TXA2 receptor = molecular target: T1, TXA2 receptor (Cavia porcellus, UniProt A0A286Y4I8); assay: Binding study using 3H-U46619 (TXA2 receptor binding activities test); design: species or system guinea pig; details: 20 min; test compound 1 μM; 12 nM 3H-U46619; washed guinea pig platelets; 37° C., 20 minutes; read-out: % Inhibition (3H-U46619 binding)
T1 construct: To a washed platelet suspension (1×10^8 platelets) of guinea pig; endogenous in cells; host or cells: washed guinea pig platelets
T1 sequence (A0A286Y4I8 1-347): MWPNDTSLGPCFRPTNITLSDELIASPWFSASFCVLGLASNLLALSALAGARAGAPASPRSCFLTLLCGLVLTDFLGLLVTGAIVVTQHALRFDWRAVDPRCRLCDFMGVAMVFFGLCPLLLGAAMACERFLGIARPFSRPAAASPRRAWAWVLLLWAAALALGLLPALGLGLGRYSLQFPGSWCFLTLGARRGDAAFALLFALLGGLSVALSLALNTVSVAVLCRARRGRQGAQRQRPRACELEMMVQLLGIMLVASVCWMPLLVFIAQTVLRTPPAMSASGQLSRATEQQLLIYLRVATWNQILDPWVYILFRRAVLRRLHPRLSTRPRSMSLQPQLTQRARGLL
Method: Receptor binding was determined by a modified method of Kattelman et al. (Thrombosis Research, 41, 471 (1986)].
To a washed platelet suspension (1×10^8 platelets) of guinea pig were added 12 nM of tritium-labeled U46619 (^3 H-U46619; NEN Co., Ltd.) and a test compound (final concentration: 1 μM) solution. After keeping at 37° C. for 20 minutes, the mixture was rapidly filtered through a glass fiber filter paper (GF/C; Whatman). Immediately, the filter paper was washed 5 times with 3 ml of ice-cold 50 mM Tris-hydroxymethylaminomethane buffer (containing 100 mM sodium chloride). The glass fiber filter was transferred to a vial and a scintillator (Ex-H; manufactured by Wako Pure Chemical Industries Co., Ltd.) was added thereto. The radioactivity was determined with a liquid scintillation counter.
It is already known that ^3 H-U46619 is capable of binding with TXA2 receptor (see the publication supra). An inhibitory activity of the test compound against this binding means an ability of binding with the TXA2 receptor. It is also known that a good relationship exists between this binding activity and the anti-platelet activity (TXA2 antagonizing test).
An inhibitory activity (binding activity) of the test compound was calculated by the following equation. [formula]
Amount of the total binding is an amount of ^3 H-U46619-bound radioactivity in the absence of a test compound.
The amount of non-specific binding is used to mean an amount of ^3 H-U46619-bound radioactivity in the presence of 10 μM U-46619.
The amount bound in the presence of a test compound is an amount of ^3 H-U46619-bound radioactivity in the presence of a test compound in various concentrations.

histamine H1 receptor = molecular target: T2, histamine H1 receptor (Cavia porcellus, UniProt P31389); assay: Binding study using 3H-pyrilamine (histamine H1 receptor binding); design: species or system guinea pig; details: read-out: (%) Inhibition (3H-pyrilamine binding)
T2 construct: from tissue; host or cells: guinea pig cerebellum membranes
Method: Receptor binding was determined by the method of chang et al. [J. Neurochem., 32, 1953 (1979)].
The cerebellum of guinea pig was suspended in a 40-fold amount (V/W) of chilled 50 mM phosphate buffer (pH 7.5) with Polytron Homogenizer (Kinematica Co., Ltd.). The suspension was centrifuged (35,500×g, 10 minutes). The resulting precipitates were resuspended in an equal amount of fresh buffer followed by centrifugation. A 100-fold amount (V/W) of chilled buffer was added to the final precipitates.
To 1 ml of the membrane suspension adjusted as described above were added 50 μl of tritium-labeled pyrilamine (^3 H-pyrilamine; NEN Co., Ltd.) and 50 μl of a test compound. The mixture was allowed to stand at 25° C. for 30 minutes, 4 ml of chilled buffer was added thereto. The mixture was rapidly filtered through a glass fiber filter (GF/C; Whatman). The filter paper was further washed three times with 5 ml of buffer. Hereafter procedures were performed in a manner similar to the TXA2 receptor binding test to determine radioactivity.
An inhibitory activity of the test compound against H1 receptor was calculated by the following equation. [formula]
Amount of the total binding is an amount of ^3 H-pyrilamine-bound radioactivity in the absence of a test compound.
The amount of non-specific binding is an amount of ^3 H-pyrilamine-bound radioactivity in the presence of 3 μM Astemizole (manufactured by Janesen Pharmaceutics).
The amount bound in the presence of a test compound is an amount of ^3 H-pyrilamine-bound radioactivity in the presence of a test compound in various concentrations.

T2 sequence (P31389 whole entry): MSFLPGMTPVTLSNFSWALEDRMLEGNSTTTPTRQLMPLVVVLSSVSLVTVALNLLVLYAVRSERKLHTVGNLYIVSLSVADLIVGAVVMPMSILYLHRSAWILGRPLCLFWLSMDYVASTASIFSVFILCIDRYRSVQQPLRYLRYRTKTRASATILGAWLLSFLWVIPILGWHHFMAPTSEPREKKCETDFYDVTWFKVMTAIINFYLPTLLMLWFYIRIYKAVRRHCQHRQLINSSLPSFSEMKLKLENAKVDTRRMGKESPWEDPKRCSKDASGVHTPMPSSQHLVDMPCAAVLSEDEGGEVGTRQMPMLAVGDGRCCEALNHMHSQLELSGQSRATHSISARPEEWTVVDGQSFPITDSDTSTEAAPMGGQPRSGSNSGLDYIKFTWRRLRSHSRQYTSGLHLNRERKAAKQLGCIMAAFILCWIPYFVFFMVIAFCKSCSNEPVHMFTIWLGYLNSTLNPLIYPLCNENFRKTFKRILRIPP

| SMILES | minimal effective concentration [1] | minimal effective dose [2] | Acute Toxicity (MLD), minimum lethal dose (mice; ip) | Acute Toxicity (MLD), minimum lethal dose (mice; po) | inhibition at 1 µM (TXA2 receptor) | inhibition at 1 µM (histamine H1 receptor; test compound 10^-6 M, guinea pig cerebellum membranes, 25° C., 30 minutes) | inhibition at 1 µM (histamine H1 receptor) |
| --- | --- | --- | --- | --- | --- | --- | --- |
| O=C(O)COc1ccc(CCNS(=O)(=O)c2ccccc2)cc1 [BM13177, reference compound] | 3 µg/mL | > 100 mg/kg | > 100 mg/kg | > 300 mg/kg | 31% | 0% |  |
| O=C(O)c1ccc2c(c1)C(SCCN1CCN(Cc3ccccc3)CC1)c1ccccc1CO2 (stereo not drawn) [Compound 11b, 11-[2-(4-Benzyl-1-piperazinyl)ethyl]thio-6,11-dihydrodibenz[b,e]oxepin-2-carboxylic acid] | 1 µg/mL | 10 mg/kg | > 100 mg/kg | > 300 mg/kg | 70% |  | 95% |
| O=C(O)c1ccc2c(c1)C(SCCN1CCN(S(=O)(=O)c3cccs3)CC1)c1ccccc1CO2 (stereo not drawn) [Compound 25b, 11-[2-[4-(2-Thienylsulfonyl)-1-piperazinyl]ethyl]thio-6,11-dihydrodibenz[b,e]oxepin-2-carboxylic acid.0.5 isopropanol.dihydrate] | 3 µg/mL | 10 mg/kg | > 100 mg/kg | > 300 mg/kg | 78% |  | 95% |
